Laboratory results published in US20250145589A1, “PYRIDINE DERIVATIVE AND USE THEREOF” (SICHUAN HUIYU PHARMACEUTICAL CO., LTD., priority 2021, published 2025).
Like-named read-outs stand apart in the source and are kept apart here.

Tests used:
PI3Kα = PI3Kα (Homo sapiens (Human), UniProt P42336); assay: Inhibition of PI3Kα efficacy assay (ADP-Glo kinase assay); type: biochemical; conditions: read-out: PI3Kα inhibitory activity (IC50)
Protocol: Inhibition of PI3Kα Efficacy assay The ADP-Glo™ kinase assay was used to assess the inhibition of PI3Kα with our compounds. The utilized proteins and assay reagents were obtained from the ADP-Glo™ Kinase Assay Kit (Promega). Initially, a 2 mM stock solution of the test compound (dissolved in DMSO) was serially diluted in five-fold concentrations using DMSO to obtain eight working solutions 1 (200′). […] Subsequently, 2 μL of 2.5×PI and ATP solution mixture were added to each well, mixed, and incubated at RT for 60 minutes. Then, 5 μL of ADP-Glo (containing 10 mM MgCl2) reagent was added to each well, mixed, and incubated at RT for 40 minutes. Finally, 10 μL of the Kinase Detection Reagent was added to each well, mixed, and incubated at RT for 40 minutes. […] Data were analyzed using GraphPad Prism with log(inhibitor) vs. response—Variable Slope(four parameters) fitting calculations for […]. (Note: The negative control refers to the group without inhibitor, and the blank control refers to the group without enzyme.) The data were presented in Tables 1 to 4.

[1] = test system: NCI-H358 cells (KRAS G12C mutant); assay: NCI-H358 cell proliferation inhibition (CellTiter-Glo); type: cell-based; conditions: Homo sapiens, NCI-H358, 72 h
Protocol: The CellTiter-Glo®, assay was used to detect the number of viable cells, in order to evaluate the anti-proliferation efficacy of compounds. […] The compounds were serially diluted 5-fold in DMSO to obtain 8 concentrations, and then further diluted with RPMI-640 (10% FBS) cell culture medium to obtain the working solutions (5′), 20 μL of each working solution was added to the cell culture supernatant in each well, and the plate was further incubated for 3 days at 37° C. with 5% CO2. The plate was then equilibrated with CellTiter-Glo® reagent at room temperature (25° C.) for 10-30 minutes. After aspirating 50 μL of the medium, 50 μL of CellTiter-Glo® reagent was added. The cells were thoroughly mixed with the CellTiter-Glo® reagent using a microplate shaker for 2 minutes, and then incubated at room temperature for 10 minutes. The 96-well plate was placed in a multi-mode microplate reader to record the luminescence values (RLU). The inhibition rate was calculated through the following equation: [formula] Data were analyzed using GraphPad Prism for IC50 values (Note: The negative control refers to the group without inhibitor).

[2] = H358 cells (G12C mutation), 3 days, Table 6, read-out: NCI-H358 (IC50)

PI3Kα, sequence (P42336 whole entry): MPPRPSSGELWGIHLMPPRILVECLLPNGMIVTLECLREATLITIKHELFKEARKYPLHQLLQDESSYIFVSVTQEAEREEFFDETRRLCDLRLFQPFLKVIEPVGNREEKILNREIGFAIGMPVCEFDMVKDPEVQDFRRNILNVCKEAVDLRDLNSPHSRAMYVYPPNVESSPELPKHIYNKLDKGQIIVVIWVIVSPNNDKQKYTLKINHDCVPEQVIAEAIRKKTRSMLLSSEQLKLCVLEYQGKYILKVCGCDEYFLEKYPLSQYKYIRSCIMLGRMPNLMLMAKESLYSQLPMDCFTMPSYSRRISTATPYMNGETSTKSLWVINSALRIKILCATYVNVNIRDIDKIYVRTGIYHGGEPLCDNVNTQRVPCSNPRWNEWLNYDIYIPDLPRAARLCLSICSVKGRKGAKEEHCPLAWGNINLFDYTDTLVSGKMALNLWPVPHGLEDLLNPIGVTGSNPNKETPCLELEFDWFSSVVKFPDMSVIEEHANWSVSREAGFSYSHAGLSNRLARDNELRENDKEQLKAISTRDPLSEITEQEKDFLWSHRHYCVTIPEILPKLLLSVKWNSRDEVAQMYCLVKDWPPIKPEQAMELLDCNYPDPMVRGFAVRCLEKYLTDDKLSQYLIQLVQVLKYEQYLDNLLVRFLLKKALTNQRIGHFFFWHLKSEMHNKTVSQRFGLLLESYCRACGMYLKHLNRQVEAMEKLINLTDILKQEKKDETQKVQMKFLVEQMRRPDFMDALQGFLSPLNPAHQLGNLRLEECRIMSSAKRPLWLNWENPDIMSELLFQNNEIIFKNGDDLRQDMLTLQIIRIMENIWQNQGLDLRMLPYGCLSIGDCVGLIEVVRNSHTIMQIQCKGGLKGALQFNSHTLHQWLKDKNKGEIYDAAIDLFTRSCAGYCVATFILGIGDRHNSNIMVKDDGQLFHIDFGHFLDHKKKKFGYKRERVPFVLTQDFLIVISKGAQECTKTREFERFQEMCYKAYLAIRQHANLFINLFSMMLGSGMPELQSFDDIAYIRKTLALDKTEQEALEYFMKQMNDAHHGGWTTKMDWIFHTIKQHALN
PI3Kα, sequence (P27986 whole entry partner): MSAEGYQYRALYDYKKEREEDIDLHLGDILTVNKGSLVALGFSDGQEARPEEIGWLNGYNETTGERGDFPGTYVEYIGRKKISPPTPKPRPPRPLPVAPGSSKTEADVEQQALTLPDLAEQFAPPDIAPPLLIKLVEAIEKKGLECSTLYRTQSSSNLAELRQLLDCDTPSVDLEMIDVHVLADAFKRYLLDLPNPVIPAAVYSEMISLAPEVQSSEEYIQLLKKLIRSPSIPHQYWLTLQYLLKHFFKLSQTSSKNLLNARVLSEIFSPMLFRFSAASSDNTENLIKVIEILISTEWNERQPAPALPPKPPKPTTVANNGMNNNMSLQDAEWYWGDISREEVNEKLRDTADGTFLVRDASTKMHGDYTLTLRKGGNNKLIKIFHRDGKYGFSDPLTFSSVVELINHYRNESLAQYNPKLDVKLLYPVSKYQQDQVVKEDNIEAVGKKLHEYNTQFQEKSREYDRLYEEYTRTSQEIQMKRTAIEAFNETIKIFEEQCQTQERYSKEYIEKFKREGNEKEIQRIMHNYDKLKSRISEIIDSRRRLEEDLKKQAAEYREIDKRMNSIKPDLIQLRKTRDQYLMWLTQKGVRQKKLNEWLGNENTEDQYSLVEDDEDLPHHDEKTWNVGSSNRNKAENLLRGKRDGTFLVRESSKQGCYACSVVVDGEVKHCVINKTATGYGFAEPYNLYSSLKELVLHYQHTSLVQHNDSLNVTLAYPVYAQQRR

| SMILES | IC50 (PI3Kα; Table 4) [nM] | IC50 [1, 2] [nM] | IC50 (PI3Kα; Table 2) [nM] | also measured |
| --- | --- | --- | --- | --- |
| C=CC(=O)N1CCN(c2nc(C)nc3ccc(-c4cnc(OC)c(NS(=O)(=O)c5ccc(F)cc5F)c4)cc23)CC1 [Example 29, N-(5-(4-(4-acryloylpiperazin-1-yl)-2-methylquinazolin-6-yl)-2-methoxypyridin-3-yl)-2,4-difluorobenzenesulfonamide] | – | – | – | IC50 (PI3Kα; Table 1): 41.3 nM |
| COc1ncc(-c2ccc3ncnc(N4CCN(C(=O)c5cccc(O)c5)CC4)c3c2)cc1NS(=O)(=O)c1ccc(F)cc1F [Example 69, 2,4-difluoro-N-(5-(4-(4-(3-hydroxy-benzoyl)piperazin-1-yl)quinazolin-6-yl)-2-methoxy-pyridin-3-yl) benzene-sulfonamide] | – | 60.7 | – | – |
| COc1ncc(-c2ccc3ncnc(N4CCN(C(=O)/C(F)=C/C(C)=O)CC4)c3c2)cc1NS(=O)(=O)c1ccc(F)cc1F [Example 77, (Z)-2,4-difluoro-N-(5-(4-(4-(2-fluoro-4-oxopent-2-enoyl)piperazin-1-yl)quinazolin-6-yl)-2-methoxypyridin-3-yl)benzenesulfonamide] | – | – | 3.9 | IC50 ([1]; read-out: NCI-H358 (IC50, nM)): 221 nM |
| C=C(F)C(=O)N1C2CCC1CN(c1ncnc3ccc(-c4cnc(OC)c(NS(=O)(=O)c5c(F)cc(F)cc5F)c4)cc13)C2 [Example 156, 2,4,6-trifluoro-N-(5-(4-(8-(2-fluoroacryloyl)-3,8-diazabicyclo[3.2.1]octan-3-yl)quinazolin-6-yl)-2-methoxypyridin-3-yl)benzenesulfonamide] | 0.5 | 29.7 | – | – |
| COc1ncc(-c2ccc3ncnc(N4CC5CCC(C4)N5C(=O)/C=C/C(C)=O)c3c2)cc1NS(=O)(=O)c1c(F)cncc1F [Example 162, 3,5-difluoro-N-(2-methoxy-5-(4-(8-((E)-4-oxopent-2-enoyl)-3,8-diazabicyclo[3.2.1]octan-3-yl)quinazolin-6-yl)pyridin-3-yl)pyridine-4-sulfonamide] | 2.4 | 141 | – | – |
| C=CC(=O)N1CCN(c2nc(OC[C@@H]3CCCN3C)nc3ccc(-c4cnc(OC)c(NS(=O)(=O)c5ccc(F)cc5F)c4)cc23)C[C@@H]1CC#N [Example 5, N-(5-(4-((S)-4-acryloyl-3-(cyanomethyl)piperazin-1-yl)-2-(((S)-1-methylpyrrolidin-2-yl)methoxy)quinazolin-6-yl)-2-methoxypyridin-3-yl)-2,4-difluorobenzenesulfonamide] | – | 5390 | – | – |
| COc1ncc(-c2ccc3ncnc(N4CCN(C(=O)/C=C/C(C)=O)CC4)c3c2)cc1NS(=O)(=O)c1ccc(C(=O)O)cc1F [Example 209, (E)-3-fluoro-4-(N-(2-methoxy-5-(4-(4-(4-oxopent-2-enoyl)piperazin-1-yl)quinazolin-6-yl)pyridin-3-yl)sulfamoyl)benzoic acid] | 0.57 | – | – | – |
| C=C(F)C(=O)N1C[C@H](C)N(c2ncnc3ccc(-c4cnc(OC)c(NS(=O)(=O)c5c(F)cccc5F)c4)cc23)C[C@H]1C [Example 52, 2,6-difluoro-N-(5-(4-((2S,5R)-4-(2-fluoroacryloyl)-2.5-dimethylpiperazin-1-yl)quinazolin-6-yl)-2-methoxypyridin-3-yl) benzenesulfonamide] | – | – | 9.1 | – |

Now from value to compound, other results behind:

| IC50 (PI3Kα; Table 4) [nM] | IC50 [1, 2] [nM] | IC50 (PI3Kα; Table 2) [nM] | SMILES | also measured |
| --- | --- | --- | --- | --- |
| 0.43 | 7.3 | – | C=C(F)C(=O)N1CC2(CCN(c3ncnc4ccc(-c5cnc(OC)c(NS(=O)(=O)c6c(F)cc(F)cc6F)c5)cc34)CC2)C1 [Example 140, 2,4,6-trifluoro-N-(5-(4-(2-(2-fluoroacryloyl)-2,7-diazaspiro[3.5]nonan-7-yl)quinazoline-6-yl)-2-methoxypyridin-3-yl)benzenesulfonamide] | – |
| 1.6 | 790 | – | C=CC(=O)N1CCC(Nc2ncnc3ccc(-c4cnc(OC)c(NS(=O)(=O)c5ccc(F)cc5F)c4)cc23)C1 (stereo not shown) [Example 147, N-(5-(4-((1-acryloylpyrrolidin-3-yl)amino)quinazolin-6-yl)-2-methoxypyridin-3-yl)-2,4-difluorobenzenesulfonamide] | – |
| – | 46.5 | 1.9 | C=C(F)C(=O)N1CCN(c2ncnc3ccc(-c4cnc(OC)c(NS(=O)(=O)c5c(F)cccc5F)c4)cc23)C[C@@H]1CC#N [Example 115, (S)-N-(5-(4-(3-(cyanomethyl)-4-(2-fluoroacryloyl)piperazin-1-yl)quinazolin-6-yl)-2-methoxypyridin-3-yl)-2,6-difluorobenzenesulfonamide] | – |
| – | 1090 | – | COc1ncc(-c2ccc3ncnc(N4CCC5(CN(C(=O)/C=C/C(C)=O)C5)C4)c3c2)cc1N(C)S(=O)(=O)c1ccc(F)cc1F [Example 81, (E)-2,4-difluoro-N-(2-methoxy-5-(4-(2-(4-oxopent-2-enoyl)-2,6-diazaspiro[3.4]octan-6-yl)quinazolin-6-yl)pyridin-3-yl)-N-methylbenzenesulfonamide] | – |
| 1.3 | 128 | – | COc1ncc(-c2ccc3ncnc(N4CC5CN(C(=O)/C=C/C(C)=O)CC5C4)c3c2)cc1NS(=O)(=O)c1ccc(F)cc1F (stereo not shown) [Example 157, (E)-2,4-difluoro-N-(2-methoxy-5-(4-(5-(4-oxopent-2-enoyl)hexahydropyrrolo[3,4-c]pyrrol-2(1H)-yl)quinazolin-6-yl)pyridin-3-yl)benzenesulfonamide] | – |
| – | 8.5 | 9.8 | C=C(F)C(=O)N1CCN(c2ncnc3ccc(-c4cnc(OC)c(NS(=O)(=O)c5c(F)cc(F)cc5F)c4)cc23)CC1 [Example 98, 2,4,6-trifluoro-N-(5-(4-(4-(2-fluoroacryloyl)piperazin-1-yl)quinazolin-6-yl)-2-methoxypyridin-3-yl)benzenesulfonamide] | – |
| 5.3 | – | – | CC(=O)/C=C/C(=O)N1CCN(c2ncnc3ccc(-c4cnc(CO)c(NS(=O)(=O)c5ccc(F)cc5F)c4)cc23)CC1 [Example 183, (E)-2,4-difluoro-N-(2-(hydroxy-methyl)-5-(4-(4-(4-oxopent-2-enoyl)piperazin-1-yl)quinazolin-6-yl)pyridin-3-yl)benzene-sulfonamide] | – |
| – | 155 | 3.5 | CC(=O)/C=C/C(=O)N1CCN(c2ncnc3ccc(-c4cnc(OC5CC5)c(NS(=O)(=O)c5ccc(F)cc5F)c4)cc23)CC1 [Example 110, (E)-N-(2-cyclopropoxy-5-(4-(4-(4-oxopent-2-enoyl)piperazin-1-yl)quinazolin-6-yl)pyridin-3-yl)-2,4-difluorobenzenesulfonamide] | – |
| – | 784 | – | CCCC(=O)/C=C/C(=O)N1CCN(c2ncnc3ccc(-c4cnc(OC)c(N(C)S(=O)(=O)c5ccc(F)cc5F)c4)cc23)CC1 [Example 80, (E)-2,4-difluoro-N-(2-methoxy-5-(4-(4-(4-oxohept-2-enoyl)piperazin-1-yl)quinazolin-6-yl)pyridin-3-yl)-N-methylbenzenesulfonamide] | – |
| 270 | – | – | [2H]C([2H])([2H])n1cc(-c2ccc3ncnc(N4CCN(C(=O)/C=C/C(C)=O)CC4)c3c2)cc(NS(=O)(=O)c2ccc(F)cc2F)c1=O [Example 244, (E)-2,4-difluoro-N-(1-(methyl-d3)-2-oxo-5-(4-(4-(4-oxopent-2-enoyl)piperazin-1-yl)quinazolin-6-yl)-1,2-dihydropyridin-3-yl)benzenesulfonamide] | – |
| – | – | 111 | COc1c(F)cc(-c2ccc3ncnc(N4CCN(C(=O)/C=C/C(C)=O)CC4)c3c2)cc1NS(=O)(=O)c1ccc(F)cn1 [Example 121, (E)-5-fluoro-N-(3-fluoro-2-methoxy-5-(4-(4-(4-oxopent-2-enoyl)piperazin-1-yl)quinazolin-6-yl)phenyl)pyridine-2-sulfonamide] | – |
